# From US20100120690A1, “Polypeptides Having Antimicrobial Activity and Polynucleotides Encoding Same” (Novozymes Adenium Biotech A/S, priority 2005, published 2010)
# Tested on: Staphylococcus carnosus ATCC51365
# Assay: Yeast screening assay: radial diffusion assay of yeast supernatants
# Type: cell-based
# Set-up: key: An activity of 3 is better than Plectasin; An activity of 2 corresponds to the activity of Plectasin; 1 is worse than Plectasin
# Conditions: yeast supernatant, clearing zone in radial diffusion assay
# Experimental: A range of antimicrobial polypeptides, which are variants of SEQ ID NO: 1 (Plectasin), were tested for antimicrobial activity by expressing them in S. cerevisae and screening the supernatant of the yeast transformants for antimicrobial activity against Staphylococcus carnosus ATCC51365.
# Radial Diffusion Assay was carried out as described in Methods in Molecular Biology, Vol. 78, Antibacterial peptide protocol, William M. Shafer, Human Press.
# 200-300 yeast transformant colonies were plated on 14 cm round plates containing 25 mL SC growth medium supplemented with 1.5% galactose, 0.5% glucose and 1.5% agarose. Plates were incubated for three hours at room temperature, overlaid with 25 mL of the same growth medium and allowed to grow for three days at 30° C. Then the plates were overlaid with 25 mL of LB growth medium containing 1.5% agarose and 10^5 cells of the indicator strain Staphylococcus carnosus and incubated at 30° C. overnight to allow growth of the bacterial cells. Next day, the plates were stained with 1.5 mM MTT to facilitate visualization of the clearing zones.
# Yeast colonies creating clearing zones were transferred to microtiter plates containing 200 micro-L of SC growth medium supplemented with 2% glucose and ampicillin (100 mg/L). Such plates designated “master plates” were incubated for 2 days at 30° C. with shaking at 450 rpm to allow yeast growth.
# 10 micro-L SC growth medium from each well of the master plates were transferred to new microtiter plates containing 200 micro-L SC growth medium with 1.5% galactose and 0.5% glucose. These plates were called daughter plates and were incubated for 3 days at 30° C. under 450 rpm shaking to allow yeast growth and peptide synthesis.
# Finally a Radial Diffusion Assay (RDA) was performed following the protocol described in Methods in Molecular Biology to analyse and quantify the antimicrobial activity of the yeast supernatants against S. carnosus.
# Briefly, 30 mL of minimal underlay medium containing 1% agarose and 5×10^5 cfu/mL of S. carnosus was poured in an omnitray plate (Nunc, 242811). A Nunc TSP plate (#445497) was inserted immediately on the plate to allow a 96 well pattern formation. Once the media had solidified, the TSP plate was removed and 10 micro-L of yeast supernatant samples were applied on the holes. Plates were incubated 3 hours at 37° C. and overlaid with 15 mL of LB agar growth medium. Finally, plates were incubated overnight at 37° C. and coloured with 1.5 mM MTT to visualize the clearing zones.
# Inspection and measurements of the clearing zones was performed on the plates. The corresponding yeast clones resulting in clearing zones of similar or increased size than the clones encoding for wild type plectasin were picked from the master plates and transferred to agar plates containing SC growth medium with 2% glucose and ampicillin (100 mg/L). Such plates were incubated for further 2 days at 30° C. to allow yeast growth. Subsequently, colony PCR was performed followed by sequence analysis to identify amino acid changes in the plectasin sequence.
# An activity of 2 corresponds to the activity of Plectasin. An activity of 3 is better than Plectasin, and 1 is worse than Plectasin.
row,Sequence,Activity (antimicrobial activity relative to the activity of plectasin)
1,GFGCNGPWLEDDMQCHNHCKSIKGYNGGYCAKGGFVCKCY [D9L + K26N],2
2,GFGCNGPWDEFDMQCHNHCKSIKGYKGGYCAKGGFVCKCY [Mutation D11F],3
3,GFGCNGPWDEDDMQCHNHCKSIKGYKGGWCAKGGFVCKCY [Mutation Y29W],3
4,GFGCNGPWDEDDMQCHNHCKSIKGYKGGYCAKGGWVCKCY [Mutation F35W],2
5,GFGCNGPWDEDDMQCHNHCKSIKGYKGGYCAKSGFVCKCY [Mutation G33S],2
6,GFGCNGPWLEDDMQCHNHCKSIKGYKGGYCAKGGFVCKCY [Mutation D9L],3
7,GFGCNGPWDEDDRQCHNHCKSIKGYKGGFCAKGGFVCKCY [M13R + Y29F],2
8,GFGCNGPWDEADMQCHNHCKSIKGYKGGYCAKGGFVCKCY [Mutation D11A],2
9,GFGCNGPWDEDDMQCHNACKSIKGYKGGYCAKGGFVCKCY [Mutation H18A],2
10,GFGCNGPWDEDDMQCHNFCKSIKGYKGGYCAKGGFVCKCY (Synthetic antimicrobial polypeptide) [Mutation H18F],2
11,GFGCNGPWDEDDMQCHNHCKSIKGYKGGYCVKGGFVCKCY [Mutation A31V],2
12,GFGCNGPRDEDDRQCHNHCKSIKGYKGGYCAKGGFVCKCY [W8R + M13R],3
13,GFGCNGPWDESDMQCHNHCKSIKGYKGGYCAKGGFVCKCY [Mutation D11S],3
14,GFGCNGPWDEDDMQCHNHCKSIKGYKGGYCAKGGAVCKCY [Mutation F35A],2
15,GFGCNGPWDEDDMQCHNHCKSIKGYKGGYCTKGGFVCKCY [Mutation A31T],3
16,GFGCNGPWDEDDMQCHNLCKSIKGYKGGYCAKGGFVCKCY [Mutation H18L],3
17,GFGCNGPWDEHDMQCHNHCKSIKGYKGGYCAKGGFVCKCY [Mutation D11H],3
18,GFGCNGPWDEDDMQCHNHCKSIKGYKGGFCAKGGFVCKCY [Mutation Y29F],3
19,GFGCNGPWDEDDMQCHNHCKSIKGLKGGYCAKGGFVCKCY [Mutation Y25L],2
20,GFGCNGPWDEDDMMCHNHCKSIKGYKGGYCAKGGFVCKCY [Mutation Q14M],2
21,GFGCNGPWDEDDAQCHNHCKSIKGYKGGYCAKGGFVCKCY [Mutation M13A],2
22,GFGCVGPWDEDDMQCHNHCKSIKGYKGGYCAKGGFVCKCY [Mutation N5V],3
23,GFGCNGPWDEDDMQCHNHCKSIKGYFGGYCAKGGFVCKCY [Mutation K26F],2
24,GFGCNGPWAEDDMQCHNHCKSIKGYKGGYCAKGGFVCKCY [Mutation D9A],3
25,GFGCNGPWDEDDMQCHNHCKSLKGYKGGYCAKGGFVCKCY [Mutation I22L],3

row,Sequence,Activity (antimicrobial activity relative to the activity of plectasin)
1,GFGCNGPWDEDDMQCHNHCKSIKFYKGGYCAKGGFVCKCY [Mutation G24F],2
2,GFGCNGVWDEDDMQCHNHCKSIKGYKGGYCAKGGFVCKCY [Mutation P7V],2
3,GFGCNGPWDEGDMQCHSHCKSIKGYKGGYCAKGGFVCKCY [D11G + N17S],3
4,GFGCNGPWDEDDMQCHNHCKSIKGYKGGRCAKGGFVCKCY [Mutation Y29R],3
5,GFGCNGPWDEDDMQCHNHCKSIKGYKGGYCAKGGFICKCY [Mutation V36I],2
6,GFGCNGPWDEDDMQCHNHCKSIKGYKGGYCYKGGFVCKCY [Mutation A31Y],3
7,GFGCQGPWDEDDMQCHNHCKSIKGYKGGYCAKGGFVCKCY [Mutation N5Q],3
8,GFGCNGPWDEDDMQCHNHCKSIKGYKGGYCAKGGFKCKCY [Mutation V36K],2
9,GFGCNGPWDEDDMQCHNHCKSIKGYKGGYCEKGGFVCKCY [Mutation A31E],2
10,GFGCNGPWDEDDMQCHNHCKSIKGYKGGYCATGGFVCKCY [Mutation K32T],2
11,GFGCNGPWDEGDMQCHNHCKSIKGYKGGYCAKGGFVCKCY [Mutation D11G],3
12,GFGCNGLWDEDDMQCHNHCKSIKGYKGGYCAKGGFVCKCY [Mutation P7L],2
13,GFGCNGPWDEDDMQCHNHCKSIKGYKGGYCRKGGFVCKCY [Mutation A31R],2
14,GFGCNGPWDEDDMQCHNHCKSMKGYKGGYCAKGGFVCKCY [Mutation I22M],2
15,GFGCNGPWDEDDMQCHNHCKSIKGYKGGYCAKGGFVCRCY [Mutation K38R],2
16,GFGCNGPWDSDDMQCHNHCKSIKGYKGGYCAKGGFVCKCY [Mutation E10S],3
17,GFGCNGPWDEDDMQCHNHCKSIKGYKGGYCAKGGFQCKCY [Mutation V36Q],2
18,GFGCNGPWDEDDMQCHNHCKSIKGYTGGYCAKGGFVCKCY [Mutation K26T],2
19,GFGCNGPWDEDDMQCHNHCKSIKGYKGGHCAKGGFVCKCY [Mutation Y29H],2
20,GFGCNGPWDEDDMKCHNHCKSIKGYKGGYCAKGGFVCKCY [Mutation Q14K],2
21,GFGCNGPWDEDDMACHNHCKSIKGYKGGYCAKGGFVCKCY [Mutation Q14A],2
22,GFGCNGPWFEDDMQCHNHCKSIKGYKGGYCAKGGFVCKCY [Mutation D9F],3
23,GFGCNGPWDEDDMQCHNHCKSIKGSKGGYCAKGGFVCKCY [Mutation Y25S],2
24,GFGCNGPWDEDDMTCHNHCKSIKGYKGGYCAKGGFVCKCY [Mutation Q14T],2
